This test deals with 379773-124-R-J2-PDC spheroid viability. Description: Anticancer human tumor 379773-124-R-J2-PDC patient-derived endometrial carcinoma cell line growth inhibition [POLQ]. Particulars: spheroids with HUVEC and MSC; for viability, T/C: stronger effect = lower value. The protocol: Multicellular complex tumor spheroid response to Polymerase (POL) inhibitors (novobiocin, ART-558, RP6685) in combination with a variety of drugs and investigational agents in selected tumor cell lines
The POL inhibitors (novobiocin, ART-558, and RP6685) were evaluated both individually and in combination with standard of care and investigational anticancer small molecules within a complex spheroid model of solid tumors. . Complex spheroids include a stromal component modeled by human endothelial cells (HUVEC) and fibroblasts modeled by human mesenchymal stem cells (MSCs). The concentration ranges selected for each drug and investigational agent were based upon clinically achievable concentrations if the clinical Cmax of the agent was known.
Compounds. The drugs and investigational agents: novobiocin (NSC847541), ART-558 (NSC835418), RP-6685 (NSC848927), peposertib (NSC802822), ceralasertib (NSC780249), elimusertib (NSC800525), camonsertib (NSC841442), AZD-1390 (NSC803789), olaparib (NSC753686), talazoparib (NSC767125), rucaparib (NSC756644), sotorasib (NSC818433), MRTX-1133 (NSC836407), SN-38 (NSC673596), topotecan (NSC609699), epotoside (NSC141540), doxorubicin (NSC123127), gemcitabine (NSC613327), 5-fluorouracil (NSC19893), paclitaxel (NSC125973), vemurafenib (NSC761431), MSA-2 (NSC828583), SN-011 (NSC837082), adavosertib (NSC754352), prexasertib (NSC758257), carboplatin (NSC241240) and oxaliplatin (NSC266046), were obtained from the National Cancer Institute (NCI) Developmental Therapeutics Program Chemical Repository (21). The FDA-approved anticancer drug set is available from the Developmental Therapeutics Program at https://dtp.cancer.gov/organization/dscb/obtaining/. […] The stock solutions were prepared in dimethyl sulfoxide (DMSO, Sigma-Aldrich, St. Louis, MO, cat. D2650), except for the platinum compounds which were prepared in saline (Quality Biological, Gaithersburg, MD, cat. 114-055-101), at 800-fold the tested concentration and stored at -70 degrees C prior to their use. All drugs and investigational agents were tested over a range starting from a high concentration at or near the clinical Cmax and decreasing in half-log increments. If the clinical Cmax for an agent had not been determined, the highest concentration tested was 10 microM, except for SN-38, which was tested at a high concentration of 1 microM.
Cell Culture. All cells were maintained in an incubator at 37 degrees C and 5% CO2 with 95% humidity. The PDC lines were cultured according to standard operating procedures established by the NCI PDMR (https://pdmr.cancer.gov). Table 3 of the manuscript, lists the cell lines along with the number of the three cell types plated to form the mct-spheroids and media for tumor cell growth. After thawing, all PDC lines, except 997537-175-T-J1-PDC and 415267-285-R-J2-PDC, were cultured in Matrigel-coated flasks prepared with a working solution of 1X Ham's F-12 nutrient mix, without supplementation (Thermo Fisher Scientific, cat. 11765054), 100 U/mL penicillin-streptomycin (Thermo Fisher Scientific, cat. 15140122), and 2.5% Matrigel (Corning Inc., Corning, NY, cat. 354248) for the first three passages. The two PDC lines 997537-175-T-J1-PDC and 415267-285-R-J2-PDC were cultured on uncoated flasks. The 857933-349-R-J2-PDC line was cultured in 6C/Colon 1B media containing advanced DMEM/F-12 (Thermo Fisher Scientific, cat. 12634028), 10 mM HEPES (Thermo Fisher Scientific, cat. 15630080), 1X GlutaMAX supplement (Thermo Fisher Scientific, cat. 35050061), 0.1 mg/mL primocin (InvivoGen, San Diego, CA, cat. ant-pm-2), 10% defined fetal bovine serum, heat inactivated (HyClone Laboratories Inc., Logan, UT, cat. SH30070.03HI), 50% L-WRN conditioned media (ATCC, cat. CRL-3276), 1.25 mM N-Acetyl-L-cysteine (Sigma-Aldrich, cat. A9165), 10 mM nicotinamide (Sigma-Aldrich, cat. N0636), 1X B-27 supplement (Thermo Fisher Scientific, cat. 17504044), 1X N-2 supplement (Thermo Fisher Scientific, cat. […]

Where [1] appears, read: curve of first compound, second compound 0.0316 µM.
[2] abbreviates: curve of first compound, second compound 0.1 µM.
Where [3] appears, read: curve of first compound, second compound 0.316 µM.
[4] abbreviates: curve of first compound, second compound 1 µM.
[5] abbreviates: curve of first compound, second compound 3.16 µM.
Where [6] appears, read: curve of first compound, second compound 10 µM.
[7] abbreviates: second compound 0.0316 µM, first compound 0.0316 µM.
Setting [8] is: second compound 0.0316 µM, first compound 0.1 µM.
Setting [9] is: second compound 0.0316 µM, first compound 0.316 µM.
The mark [10] stands for this setting: second compound 0.0316 µM, first compound 1 µM.
Where [11] appears, read: second compound 0.0316 µM, first compound 3.16 µM.
The mark [12] stands for this setting: second compound 0.0316 µM, first compound 10 µM.
[13] abbreviates: second compound 0.1 µM, first compound 0.0316 µM.
Setting [14] is: second compound 0.1 µM, first compound 0.1 µM.
The mark [15] stands for this setting: second compound 0.1 µM, first compound 0.316 µM.
[16] abbreviates: second compound 0.1 µM, first compound 1 µM.
Setting [17] is: second compound 0.1 µM, first compound 3.16 µM.
The mark [18] stands for this setting: second compound 0.1 µM, first compound 10 µM.
[19] abbreviates: second compound 0.316 µM, first compound 0.0316 µM.
The mark [20] stands for this setting: second compound 0.316 µM, first compound 0.1 µM.
Where [21] appears, read: second compound 0.316 µM, first compound 0.316 µM.
Setting [22] is: second compound 0.316 µM, first compound 1 µM.
Where [23] appears, read: second compound 0.316 µM, first compound 3.16 µM.
Setting [24] is: second compound 0.316 µM, first compound 10 µM.
[25] abbreviates: second compound 1 µM, first compound 0.0316 µM.
Setting [26] is: second compound 1 µM, first compound 0.1 µM.
The mark [27] stands for this setting: second compound 1 µM, first compound 0.316 µM.
[28] abbreviates: second compound 1 µM, first compound 1 µM.
Setting [29] is: second compound 1 µM, first compound 3.16 µM.
Setting [30] is: second compound 1 µM, first compound 10 µM.
Setting [31] is: second compound 3.16 µM, first compound 0.0316 µM.
The mark [32] stands for this setting: second compound 3.16 µM, first compound 0.1 µM.
Where [33] appears, read: second compound 3.16 µM, first compound 0.316 µM.
The mark [34] stands for this setting: second compound 3.16 µM, first compound 1 µM.
Setting [35] is: second compound 3.16 µM, first compound 3.16 µM.
The mark [36] stands for this setting: second compound 3.16 µM, first compound 10 µM.
The mark [37] stands for this setting: second compound 10 µM, first compound 0.0316 µM.
Where [38] appears, read: second compound 10 µM, first compound 0.1 µM.
Setting [39] is: second compound 10 µM, first compound 0.316 µM.
Where [40] appears, read: second compound 10 µM, first compound 1 µM.
[41] abbreviates: second compound 10 µM, first compound 3.16 µM.
Setting [42] is: second compound 10 µM, first compound 10 µM.

We go through five compounds from PubChem BioAssay AID1963848 (Molecular Pharmacology Branch, DTP, NCI, 2024).

“And” between values parts separate entries of the source, which are not always exact repeats. Identical values can stand only once. Where only a bound is given, the exact number is not on record here.

A word on the IC50: it is the midpoint of a concentration-inhibition curve. Usually viability, T/C stands for the ratio of treated to control.
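Note: spheroids exposed to drugs for seven days before readout.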
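Throughout, for viability, T/C: percent viability relative to DMSO vehicle control taken as 100%.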

For `COc1cc2cc(C(=O)CCC(=O)O)sc2cc1OC` + Cc1cccc(N(C)C(=O)C2C(O)CCN2c2nc(C)cc(C(F)(F)F)c2C#N)c1, the IC50 runs as follows: under setting [1], over 10 µM; under setting [2], over 10 µM; under setting [3], over 10 µM; under setting [4], over 10 µM; under setting [5], over 10 µM; under setting [6], over 10 µM. In addition, the viability, T/C is 90.8% under setting [7]; 100% under setting [8]; 86.1% under setting [9]; 89.3% under setting [10]; 89.2% under setting [11]; 102% under setting [12]. Besides, the viability, T/C runs as follows: under setting [13], 96.3%; under setting [14], 89.2%; under setting [15], 85.3%; under setting [16], 96.9%; under setting [17], 105%; under setting [18], 91.2%. For the same compound, the viability, T/C runs as follows: under setting [19], 102%; under setting [20], 88.5%; under setting [21], 85.2%; under setting [22], 90.1%; under setting [23], 85.8%; under setting [24], 89%. Moreover, the viability, T/C reads like this: under setting [25], 88.5%; under setting [26], 103%; under setting [27], 96.3%; under setting [28], 100%; under setting [29], 102%; under setting [30], 88.1%. Also, the viability, T/C reads like this: under setting [31], 101%; under setting [32], 83.7%; under setting [33], 103%; under setting [34], 100%; under setting [35], 87.7%; under setting [36], 95.1%. Also, the viability, T/C by setting is: under setting [37], 94.5%; under setting [38], 84.6%; under setting [39], 89.7%; under setting [40], 89.9%; under setting [41], 103%; under setting [42], 85.3%.
`CCc1c2c(nc3ccc(O)cc13)-c1cc3c(c(=O)n1C2)COC(=O)[C@]3(O)CC`: the viability, T/C runs as follows: (compound 0.00316 µM) 45.6% and 49.3% and 46.8%; (compound 0.01 µM) 11.9% and 17.2% and 7.71%; (compound 0.0316 µM) 6.11% and 11.4% and 5.39%; (compound 0.1 µM) 2.46% and 4.85% and 2.38%; (compound 0.316 µM) 1.23% and 4.28% and 1.04%; (compound 1 µM) 1.89% and 0.95% and 0.4%. Besides, where the note is “curve of compound”, the half-inhibitory concentration (IC50) is under 0.00316 µM.
Turning to `CC(C)n1c(=O)n(C)c2cnc3cc(F)c(-c4ccc(OCCCN5CCCCC5)nc4)cc3c21` + COC1C(OC(N)=O)C(O)C(Oc2ccc3c(O)c(NC(=O)c4ccc(O)c(CC=C(C)C)c4)c(=O)oc3c2C)OC1(C)C, the IC50 is, setting by setting: under setting [1], over 10 µM; under setting [2], over 10 µM; under setting [3], over 10 µM; under setting [4], over 10 µM; under setting [5], over 10 µM; under setting [6], over 10 µM. Also, the viability, T/C under setting [7] is 92.3%; the viability, T/C under setting [8] is 74%; the viability, T/C under setting [9] was 86.2%; the viability, T/C under setting [10] was 75.7%; the viability, T/C under setting [11] was 67.5%; the viability, T/C under setting [12] was 56.5%. For the same compound, the viability, T/C by setting is: under setting [13], 85.2%; under setting [14], 87.4%; under setting [15], 87.5%; under setting [16], 76.6%; under setting [17], 64.3%; under setting [18], 68.4%. Moreover, the viability, T/C under setting [19] is 99.1%; the viability, T/C under setting [20] was 81.2%; the viability, T/C under setting [21] was 84%; the viability, T/C under setting [22] was 75.3%; the viability, T/C under setting [23] was 67.5%; the viability, T/C under setting [24] is 60.5%. The viability, T/C is 85.5% under setting [25]; 81.2% under setting [26]; 77.4% under setting [27]; 71.7% under setting [28]; 69.8% under setting [29]; 75.7% under setting [30]. The viability, T/C runs as follows: under setting [31], 78%; under setting [32], 81.7%; under setting [33], 77.7%; under setting [34], 68.1%; under setting [35], 77.7%; under setting [36], 80.4%. The viability, T/C under setting [37] is 80.2%; the viability, T/C under setting [38] was 74.6%; the viability, T/C under setting [39] is 79.7%; the viability, T/C under setting [40] is 72.2%; the viability, T/C under setting [41] was 80.7%; the viability, T/C under setting [42] was 64.9%.
With `CCc1cc2c(N3CCc4c(cc(Cn5ccnc5)cc4-c4cn(C)nc4C(F)(F)F)C3=O)cc(C)nc2c(OC)n1`, the viability, T/C was 70.7% and 94% and 69.3% (compound 0.0316 µM); 73.2% and 69.1% and 70.4% (compound 0.1 µM); 54.8% and 60.2% and 68.2% (compound 0.316 µM); 55.9% and 57.2% and 61.2% (compound 1 µM); 41.9% and 60.5% and 56.2% (compound 3.16 µM); 40% and 47.3% and 48.9% (compound 10 µM). Besides, the IC50 (curve of compound) was 1.26 µM and > 10 µM and 8.12 µM.
On to `CC1COCCN1c1cc(C2(O)CC3CCC(C2)O3)c2cnn(-c3ccn[nH]3)c2n1` (stereo not given), for which the viability, T/C runs as follows: (compound 0.0316 µM) 90.7% and 78.4% and 84.5%; (compound 0.1 µM) 43% and 48.6% and 58.8%; (compound 0.316 µM) 11.1% and 12% and 16.6%; (compound 1 µM) 10.4% and 9.93% and 13.2%; (compound 3.16 µM) 8.43% and 7.19% and 10.1%; (compound 10 µM) 2.25% and 2.29% and 3.67%. Further, the IC50 (curve of compound) was 0.0844 µM and 0.0944 µM and 0.127 µM.
